For two compounds, IC50, Drug metabolism and solubility results are on record in ChEMBL document CHEMBL4002620, “Synthesis of Vorinostat and cholesterol conjugate to enhance the cancer cell uptake selectivity” (Bioorg Med Chem Lett, 2017).

The test system of series [1] is NCI-H292. As to the kind of experiment: cells. It is filed as functional, cell-based. Particulars: Homo sapiens, NCI-H292, 72 h.
Description: Growth inhibition of human NCI-H292 cells after 72 hrs by MTT assay
For series [2], the system named is NCI-H292. Nature of the series: cells. It is filed as functional, cell-based. Particulars: Homo sapiens, NCI-H292, 72 h. The source holds these as a separate data set.
Description: Growth inhibition of human NCI-H292 cells after 72 hrs in presence of LDL by MTT assay
Series [3] relates to NCI-H292. As to the kind of experiment: cells. Type of series: functional, cell-based. Particulars: Homo sapiens, NCI-H292, 72 h. This is another data set of the same source.
Description: Growth inhibition of human NCI-H292 cells in FBS containing medium after 72 hrs using compound after sonication in presence of LDL by MTT assay
Series [4] has as its system NCI-H292. As to the kind of experiment: cells. It is filed as functional, cell-based. Particulars: Homo sapiens, NCI-H292, 72 h. The source holds these as a separate data set.
Description: Growth inhibition of human NCI-H292 cells in LDL depleted FBS containing medium after 72 hrs using compound after sonication in presence of LDL by MTT assay
Series [5] in a line: Drug metabolism in human NCI-H292 cells assessed as compound hydrolysis by measuring increase in 4-amino SAHA formation after 30 mins by HPLC-ESI-MS analysis. Type of series: ADME, cell-based. Particulars: nci-h292, 0.5 h.
Series [6] can be described thus: Solubility of the compound in aqueous solution at 20 uM. Particulars: buffer. Type of series: physicochemical.
Series [7] in a line: Solubility of the compound in aqueous solution at 500 uM in presence of LDL. It is filed as physicochemical. Particulars: buffer.

Each structure is given as a SMILES string. pIC50: −log10 of the molar value.

For `Nc1ccc(NC(=O)CCCCCCC(=O)NO)cc1`, the pIC50 (commonly the IC50 on a negative log10 scale, so that one unit is a factor of ten) in the series on NCI-H292 [1] was 5.56; with NCI-H292 [2], 4.83; in the series on NCI-H292 [3], 4.83; with NCI-H292 [4], 5.11.
On to `CC(C)CCC[C@@H](C)[C@H]1CC[C@H]2[C@@H]3CC=C4C[C@@H](OC(=O)Nc5ccc(NC(=O)CCCCCCC(=O)NO)cc5)CC[C@]4(C)[C@H]3CC[C@]12C`, for which the Drug metabolism entry in series [5] is reported as “Metabolite_Detected”. Moreover, the solubility result is listed as “Insoluble” in series [6] and “Soluble” in series [7]. In addition, the pIC50 is less than 3.30 in the series with NCI-H292 [1], less than 3.30 with NCI-H292 [2], less than 3.30 in the series with NCI-H292 [3] and 4.04 in the series with NCI-H292 [4].
